Measured values from US20130190407A1, “CALCIUM RECEPTOR-ACTIVE MOLECULES” (NPS Pharmaceuticals, Inc., priority 1991, published 2013).
Read-outs that look alike come from different tables or passages of the source.

Columns and labels:
[1] = tested on: parathyroidectomized rats; experiment: Serum ionized Ca2+ in parathyroidectomized animals; format: in vivo, rat
Description: To determine the primary target tissue upon which NPS R-467 acts to cause a hypocalcemic response, the parathyroid glands in rats were surgically removed. Animals receiving a total parathyroidectomy become hypocalcemic and are largely dependent upon dietary calcium to maintain serum Ca^2+ homeostasis.

[2] = target: T1, parathyroid cell calcium receptor (Bos taurus, UniProt P35384); experiment: Mobilization of intracellular Ca2+ ([Ca2+]i, fura-2) in bovine parathyroid cells; format: cell-based; parameters: Parathyroid glands were obtained from freshly slaughtered calves (12-15 weeks old); endogenous in cells; host or cells: dissociated primary bovine (calf) parathyroid cells; conditions: EC50 for mobilization of intracellular Ca2+; bovine parathyroid cells
T1 sequence (P35384 20-1085): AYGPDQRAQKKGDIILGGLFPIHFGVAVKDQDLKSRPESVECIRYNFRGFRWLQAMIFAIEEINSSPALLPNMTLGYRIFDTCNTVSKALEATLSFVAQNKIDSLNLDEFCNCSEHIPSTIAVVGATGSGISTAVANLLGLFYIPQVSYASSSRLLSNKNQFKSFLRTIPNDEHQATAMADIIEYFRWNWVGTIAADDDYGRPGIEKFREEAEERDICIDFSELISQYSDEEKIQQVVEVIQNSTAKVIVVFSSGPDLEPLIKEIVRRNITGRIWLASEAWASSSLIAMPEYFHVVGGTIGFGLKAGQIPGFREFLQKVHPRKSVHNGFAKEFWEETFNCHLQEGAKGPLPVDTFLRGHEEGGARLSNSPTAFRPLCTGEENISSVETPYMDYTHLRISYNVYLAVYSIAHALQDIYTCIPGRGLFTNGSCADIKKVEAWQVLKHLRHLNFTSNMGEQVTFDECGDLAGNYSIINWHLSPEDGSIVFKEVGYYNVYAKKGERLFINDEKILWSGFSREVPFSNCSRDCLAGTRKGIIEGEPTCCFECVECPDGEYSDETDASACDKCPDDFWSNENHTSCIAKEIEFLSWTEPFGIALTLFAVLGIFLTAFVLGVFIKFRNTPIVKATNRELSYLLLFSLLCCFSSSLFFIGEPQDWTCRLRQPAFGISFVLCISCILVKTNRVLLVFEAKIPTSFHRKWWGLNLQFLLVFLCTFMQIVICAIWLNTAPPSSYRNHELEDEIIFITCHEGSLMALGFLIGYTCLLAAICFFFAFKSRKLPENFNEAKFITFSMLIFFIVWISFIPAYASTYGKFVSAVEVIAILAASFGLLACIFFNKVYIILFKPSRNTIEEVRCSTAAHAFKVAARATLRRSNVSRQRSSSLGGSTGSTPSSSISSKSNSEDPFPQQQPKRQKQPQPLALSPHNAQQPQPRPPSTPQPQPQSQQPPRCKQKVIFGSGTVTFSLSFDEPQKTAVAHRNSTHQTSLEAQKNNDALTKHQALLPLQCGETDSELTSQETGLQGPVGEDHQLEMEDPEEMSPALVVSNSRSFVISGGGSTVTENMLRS
Method: This section describes procedures used to obtain and treat parathyroid cells from calves and humans. […] Human parathyroid glands, were obtained from patients undergoing surgical removal of parathyroid tissue for primary or uremic hyperparathyroidism (uremic HPT), and were treated similarly to bovine tissue.
Glands were trimmed of excess fat and connective tissue and then minced with fine scissors into cubes approximately 2-3 mm on a side. Dissociated parathyroid cells were prepared by collagenase digestion and then purified by centrifugation in Percoll buffer. The resultant parathyroid cell preparation was essentially devoid of red blood cells, adipocytes, and capillary tissue as assessed by phase contrast microscopy and Sudan black B staining. Dissociated and purified parathyroid cells were present as small clusters containing 5 to 20 cells.
The cells were then pelleted, resuspended in the same buffer, but lacking the ester, and incubated a further 15 minutes at 37° C. The cells were subsequently washed twice with PCB containing 0.5 mM CaCl2 and 0.5% BSA and maintained at room temperature (about 20° C.) Immediately before use, the cells were diluted five-fold with prewarmed 0.5 mM CaCl2-PCB to obtain a final BSA concentration of 0.1%. The concentration of cells in the cuvette used for fluorescence recording was 1−2×10^6/ml.
The fluorescence of indicator-loaded cells was measured at 37° C. in a spectrofluorimeter (Biomedical Instrumentation Group, University of Pennsylvania, Philadelphia, Pa.) equipped with a thermostated cuvette holder and magnetic stirrer using excitation and emission wavelengths of 340 and 510 nm, respectively. […] Leakage of dye is dependent on temperature and most occurs within the first 2 minutes after warming the cells in the cuvette. Dye leakage increases only very slowly thereafter. To correct the calibration for dye leakage, cells were placed in the cuvette and stirred at 37° C. for 2-3 minutes. The cell suspension was then removed, the cells pelleted, and the supernatant returned to a clean cuvette. […] This estimate was subtracted from the apparent Fmin.

[3] = target: T2, bovine parathyroid cell calcium receptor (Bos taurus, UniProt P35384); experiment: Cl- current in Xenopus oocytes injected with BoPCaR 1; format: cell-based
T2 construct: isolation of a single clone (BoPCaR 1) with a cDNA insert of 5.3 kb; expressed in transfected cells
T2 sequence (P35384 20-1085): T1 sequence (P35384 20-1085)
Method: Several pharmacological and biochemical criteria were used to identify this clone as encoding a bona fide bovine parathyroid Ca^2+ receptor. […] These responses increased markedly over a period of one to four days after injection of the eggs with cRNA prepared from the BoPCaR 1 cDNA. Furthermore, the ranges of the concentrations of the two cations eliciting this response were very similar to those shown previously to act on bovine parathyroid cells in vitro.
Xenopus oocytes were injected with BoPCaR 1, the 5.3 Kb cDNA encoding a bovine parathyroid cell calcium receptor as described in Example 25. After two to three days, Cl^− currents were examined in the oocytes using a two-electrode voltage clamp.
Xenopus oocytes were injected with BoPCaR 1 as described in Example 25. After two to three days, Cl^− currents were examined in the oocytes using two electrode voltage clamp.

Sprague-Dawley rats = experiment: Serum/plasma Ca2+, PTH and calcitonin in rats in vivo; parameters: species or system rat; conditions: for ED50: Rattus norvegicus, po, normal adult rats
Method: Compounds shown to activate the bovine parathyroid cell calcium receptor in vitro were tested for hypocalcemic activity in vivo. Male Sprague-Dawley rats (200 g) were maintained on a low calcium diet for one week prior to receiving test substance or vehicle as control. Blood was collected from the tail vein three hours after the intra-peritoneal administration of NPS 467. […] Serum total calcium, albumin and phosphate were measured by techniques well known in the art.
Rats (male, Sprague-Dawley, 250-300 g) were fed standard rat chow and fasted overnight prior to the experiment. NPS R-467 was suspended in corn oil, and administered as a single oral dose through a gavage needle. Three hours later a sample of blood was taken from the tail vein and assessed for ionized Ca^2+ levels.

COc1cccc([C@@H](C)NCCCc2ccccc2Cl)c1 [NPS R-568, (R)-(+)-N-[3-(2-chlorophenyl)propyl]-α-methyl-3-methoxybenzylamine]
hypocalcemic response ([1]; oral administration): fails to elicit a hypocalcemic response
EC50 [2]: < 5 µM
EC50 ([3]; 0.3 or 1 mM extracellular Ca2+, read-out: EC50 for increases in Cl- current): ~3 µM
ED50 (Sprague-Dawley rats; read-out: ED50 for depression of plasma Ca2+): 8 mg/kg
ED50 (Sprague-Dawley rats; read-out: ED50 for depression of plasma PTH): 1 mg/kg
ED50 (Sprague-Dawley rats; read-out: ED50 for stimulation of calcitonin): 40 mg/kg

COc1cccc([C@@H](C)NCCCc2ccccc2)c1 (single isomer, unassigned) [NPS R-467]
change in serum ionized Ca2+ ([1]; 10 mg/kg i.p., over 6 hours): did not cause any change in serum ionized Ca^2+ levels
EC50 [2]: < 5 µM
potency in lowering serum Ca2+ in vivo (Sprague-Dawley rats; 5 mg/kg body weight): more potent than the S-isomer in lowering serum Ca^2+ in vivo
serum ionized Ca2+ (Sprague-Dawley rats; single oral dose in corn oil, three hours): dose-dependent reduction in serum levels of ionized Ca^2+

NC[C@@H]1O[C@H](O[C@H]2[C@@H](O)[C@H](O[C@@H]3[C@@H](O)[C@H](N)C[C@H](N)[C@H]3O[C@H]3O[C@H](CN)[C@@H](O)[C@H](O)[C@H]3N)O[C@@H]2CO)[C@H](N)[C@@H](O)[C@@H]1O [Neomycin B, neomycin B]
concentrations producing changes in Cl- current [3]: 20 to 100 µM
